Columns and labels:
Test in all cases: relative viability (nuclei count vs DMSO), 5 days (fraction); higher = more cells survive
[1] = compound: C#Cc1cccc(Nc2ncnc3cc(OCCOC)c(OCCOC)cc23)c1 [Erlotinib] + CC(=O)c1c(C)c2cnc(Nc3ccc(N4CCNCC4)cn3)nc2n(C2CCCC2)c1=O [Palbociclib] (partner 0.5 µM)
Procedure, shortened: (§1)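 For relative viability, nuclei counts in treated wells were divided by those in vehicle wells. Lung cancer cell lines had been pin-tool dosed in 1536-well plates the day after seeding and cultured for 5 days, then fixed and stained in one step (final 0.05% Triton X-100, 1% formaldehyde, 1 ug/ml Hoechst) and imaged at 4×. Doses were one drug alone or a fixed anchor-drug dose plus five library-drug doses (not always all listed) in √10 steps, and values are duplicate-plate medians.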

[2] = compound: C#Cc1cccc(Nc2ncnc3cc(OCCOC)c(OCCOC)cc23)c1 [Erlotinib] + CC1(C)CCC(c2ccc(Cl)cc2)=C(CN2CCN(c3ccc(C(=O)NS(=O)(=O)c4ccc(N[C@H](CCN5CCOCC5)CSc5ccccc5)c(S(=O)(=O)C(F)(F)F)c4)cc3)CC2)C1 [Navitoclax] (partner 0.5 µM)
Procedure, shortened: as §1

[3] = compound: C#Cc1cccc(Nc2ncnc3cc(OCCOC)c(OCCOC)cc23)c1 [Erlotinib] + Cc1cc(Nc2cc(N3CCN(C)CC3)nc(Sc3ccc(NC(=O)C4CC4)cc3)n2)n[nH]1 [Tozasertib] (partner 0.1 µM)
Procedure, shortened: as §1

[4] = compound: C#Cc1cccc(Nc2ncnc3cc(OCCOC)c(OCCOC)cc23)c1 [Erlotinib] + O=C(CCCCCCC(=O)Nc1ccccc1)NO [Vorinostat] (partner 1 µM)
Procedure, shortened: as §1

[5] = compound: O=C(Nc1c[nH]nc1-c1nc2ccc(CN3CCOCC3)cc2[nH]1)NC1CC1 [AT9283] + CC1(C)CCC(c2ccc(Cl)cc2)=C(CN2CCN(c3ccc(C(=O)NS(=O)(=O)c4ccc(N[C@H](CCN5CCOCC5)CSc5ccccc5)c(S(=O)(=O)C(F)(F)F)c4)cc3)CC2)C1 [Navitoclax] (partner 0.5 µM)
Procedure, shortened: as §1

Cell Line	relative viability ([1]; first compound 0.02 µM)	relative viability ([1]; first compound 0.2 µM)	relative viability ([1]; first compound 0.6325 µM)	relative viability ([1]; first compound 2 µM)	relative viability ([2]; first compound 0.02 µM)	relative viability ([2]; first compound 0.6325 µM)	relative viability ([2]; first compound 2 µM)	relative viability ([3]; first compound 0.02 µM)	relative viability ([3]; first compound 0.2 µM)	relative viability ([3]; first compound 0.6325 µM)	relative viability ([3]; first compound 2 µM)	relative viability ([4]; first compound 0.02 µM)	relative viability ([4]; first compound 0.2 µM)	relative viability ([4]; first compound 0.6325 µM)	relative viability ([4]; first compound 2 µM)	relative viability ([5]; first compound 0.003 µM)	relative viability ([5]; first compound 0.03 µM)	relative viability ([5]; first compound 0.09487 µM)	relative viability ([5]; first compound 0.3 µM)	relative viability ([2]; first compound 0.2 µM)
PC-14	0.173	0.0873	0.0953	0.0635	0.935	0.391	0.31	0.435	0.148	0.159	0.103	0.428	0.0858	0.0926	0.061	1.12	1.01	0.37	0.078	–
201T	0.35	0.323	0.319	0.287	1.22	1.2	1.17	0.965	0.915	0.877	0.707	0.573	–	0.89	0.816	1.24	1.21	1.21	0.524	1.2
NCI-H1651	0.527	0.474	0.514	0.478	1.04	1.11	0.934	0.671	–	0.606	0.282	0.533	0.541	0.564	0.462	1.09	0.956	0.489	0.231	0.861
RERF-LC-KJ	1.02	1.01	0.93	0.759	0.861	0.583	0.771	0.55	0.53	0.44	0.381	0.716	0.605	0.624	0.453	0.834	0.554	0.223	0.217	0.663
COR-L 105	0.402	0.322	0.359	0.328	0.809	0.364	0.283	0.335	0.305	0.217	0.227	0.776	0.564	0.425	0.377	0.83	0.27	0.293	0.281	0.531
NCI-H1915	0.522	0.526	0.599	0.502	0.865	0.841	0.745	0.45	0.405	0.408	0.262	0.536	0.529	0.508	0.485	0.657	0.72	0.504	0.174	0.807
CAL-12T	0.433	0.125	0.154	0.146	1.35	0.614	0.546	0.357	0.226	0.188	0.153	0.763	0.54	0.359	0.313	1.47	0.879	0.261	0.21	1.31
NCI-H1975	0.539	0.611	0.639	0.472	1.11	1.07	0.977	0.773	0.549	0.251	0.142	0.722	0.726	0.701	0.58	1.11	1.18	0.971	0.282	1.07
PC-3 [JPC-3]	0.536	0.473	0.339	0.376	0.653	0.349	0.295	0.825	0.355	0.331	0.274	–	0.441	0.351	0.362	0.821	0.723	0.363	0.331	0.443
NCI-H2228	0.805	0.739	–	0.572	1.28	0.679	0.676	0.237	0.164	0.169	0.142	0.649	0.591	0.458	0.476	0.93	0.774	0.51	0.144	0.909
HARA	0.233	0.224	0.241	0.188	1.16	0.88	0.964	0.0745	0.0897	0.0791	0.0606	0.643	0.598	0.402	0.445	1.1	0.129	0.0715	0.101	1.08
ChaGo-K-1	0.89	0.952	0.951	0.854	0.68	1.25	0.777	0.214	0.186	0.179	0.185	0.784	0.721	0.82	0.74	0.694	0.746	0.244	0.299	0.981
NCI-H2347	0.432	0.415	0.429	0.468	1.07	0.837	0.796	0.58	0.49	0.52	0.535	0.628	0.717	0.625	0.552	0.93	0.764	0.368	0.267	0.833
NCI-H1793	0.252	0.241	0.247	0.241	0.447	0.297	0.387	0.307	0.258	0.235	0.161	0.841	0.36	0.551	0.441	0.533	0.429	0.231	0.164	0.325
LK-2	0.579	0.589	0.712	0.743	0.941	1.04	0.725	0.196	0.17	0.157	0.158	0.264	0.454	0.419	0.304	0.803	0.493	0.169	0.168	0.621
COR-L23	0.292	0.287	0.383	0.29	1.16	1.08	1	0.253	0.202	0.163	0.114	0.583	0.423	0.489	0.362	0.964	0.301	0.123	0.126	1.04

— the supplement of paper PMC10307832
